system: HCV replicon; test: HCV Replicon Assay (luciferase, 5-2 Luc replicon cells); assay type: cell-based; settings: 5-2 Luc replicon cells (Huh7), 24-48 hours with compound, luciferase counts
Method in brief: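 Huh7-derived 5-2 Luc replicon cells were seeded at 5000-7500 cells/well, grown 24 h at 37° C. and 5% CO2, then exposed to serial compound concentrations for 24-48 hours.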

Row | SMILES | Activity (concentration of inhibitory activity)
1 | Cc1cc2cc(NC(=O)C3CCCC3)ccc2n1C(=O)c1c(Cl)cccc1Cl [Compound 16a-1, 5-Cyclopentanecarbonylamino-1-(2′,6′-dichlorobenzoyl)-2-methylindole] | a (“a” indicates inhibitory activity at a concentration of less than 10 micromolar)
2 | Cc1cc2cc(NC(=O)C3CCCC3)ccc2n1C(=O)c1cc(Cl)cc(Cl)c1 [Compound 275] | b (“b” indicates activity is at a concentration greater than 10 micromolar)
3 | Cc1cc2cc(NC(=O)C3CCCC3)ccc2n1C(=O)c1ccc(Cl)cc1 [Compound 276] | b (“b” indicates activity is at a concentration greater than 10 micromolar)
4 | Cc1ccccc1C(=O)n1c(C)cc2cc(NC(=O)C3CCCC3)ccc21 [Compound 277] | b (“b” indicates activity is at a concentration greater than 10 micromolar)
5 | CC(C)(C)c1cc2cc(NC(=O)c3ccc(C(F)(F)F)cc3)ccc2[nH]1 [Compound 278] | a (“a” indicates inhibitory activity at a concentration of less than 10 micromolar)
6 | CC(C)(C)c1cc2cc(NC(=O)c3cc(Cl)nc(Cl)c3)ccc2[nH]1 [Compound 279] | a (“a” indicates inhibitory activity at a concentration of less than 10 micromolar)
7 | COc1cc(C(=O)Nc2ccc3[nH]c(C(C)(C)C)cc3c2)cc(OC)c1OC [Compound 280] | b (“b” indicates activity is at a concentration greater than 10 micromolar)
8 | CC(C)(C)c1cc2cc(NC(=O)c3cccs3)ccc2[nH]1 [Compound 281] | a (“a” indicates inhibitory activity at a concentration of less than 10 micromolar)
9 | CCC(C)(C)c1cc2cc(NC(=O)C(C)(C)C)ccc2[nH]1 [Compound 282] | b (“b” indicates activity is at a concentration greater than 10 micromolar)
10 | CCC(C)(C)c1cc2cc(NC(=O)/C=C/c3ccccc3)ccc2[nH]1 [Compound 283] | b (“b” indicates activity is at a concentration greater than 10 micromolar)
11 | CCC(C)(C)c1cc2cc(NC(=O)c3ccc(C(C)(C)C)cc3)ccc2[nH]1 [Compound 284] | b (“b” indicates activity is at a concentration greater than 10 micromolar)
12 | CCC(C)(C)c1cc2cc(NC(=O)c3c(F)cccc3F)ccc2[nH]1 [Compound 285] | a (“a” indicates inhibitory activity at a concentration of less than 10 micromolar)
13 | CCC(C)(C)c1cc2cc(NC(=O)c3cccc(C(F)(F)F)c3)ccc2[nH]1 [Compound 286] | a (“a” indicates inhibitory activity at a concentration of less than 10 micromolar)
14 | CCC(C)(C)c1cc2cc(NC(=O)C(c3ccccc3)c3ccccc3)ccc2[nH]1 [Compound 287] | b (“b” indicates activity is at a concentration greater than 10 micromolar)
15 | CCC(C)(C)c1cc2cc(NC(=O)c3cccs3)ccc2[nH]1 [Compound 288] | b (“b” indicates activity is at a concentration greater than 10 micromolar)
16 | CCC(C)(C)c1cc2cc(NC(=O)c3cc(Cl)nc(Cl)c3)ccc2[nH]1 [Compound 289] | a (“a” indicates inhibitory activity at a concentration of less than 10 micromolar)
17 | CC(C)(C)c1cc2cc(NC(=O)C3CC3)ccc2[nH]1 [Compound 290] | a (“a” indicates inhibitory activity at a concentration of less than 10 micromolar)

system: HCV replicon; test: Immunoblotting Assay (9-13 replicon cells); assay type: cell-based; settings: 9-13 replicon cells (Huh7), 48 hours with compound
Protocol: Actively dividing 9-13 replicon cells (Huh7 cells comprising an HCV replicon) were seeded at the density of 1×10^5 cells/well in the volume of 2 ml/well into 6 well plate(s). The cells were then incubated at 37° C. and 5% CO2 for 24 hours.
Various concentrations of compounds (in the volume of 10 μl) were added into each well 24 hours after seeding the cells. The cells were incubated with the compounds for another 48 hours.
Protein samples were prepared from the cultured cells and resolved on a SDS-PAGE gel.
After electrophoresis, the protein samples on the SDS-PAGE gel were transferred to a nitrocellulose membrane.
The membrane was blocked with 5% non-fat milk in PBS for 1 hr at room temperature.
Primary antibody incubation was performed for 1 hour at room temperature before the membrane was washed for 3 times with PBST (PBS plus 0.1% Tween 20), 15 minutes each.
Horse Radish Peroxidase conjugated secondary antibody incubation was performed for 1 hour at room temperature before the membrane was washed for 3 times with PBST (PBS plus 0.1% Tween 20), 15 minutes each.
The membrane was then soaked in substrate solution (Pierce) and exposed to a film.

Row | SMILES | Activity (concentration of inhibitory activity)
18 | CC(C)(C)c1cc2cc(NC(=O)c3cccs3)ccc2[nH]1 [Compound 281] | a (“a” indicates inhibitory activity at a concentration of less than 10 micromolar)

system: HCV replicon; test: TaqMan RT-PCR Assay (9-13 replicon cells); assay type: cell-based; settings: 24-48 hours with compound
Protocol: Actively dividing 9-13 replicon cells were seeded at the density of 3×10^4 cells/well in the volume of 1 ml/well into 24 well plate(s). The cells were then incubated at 37° C. and 5% CO2 for 24
Various concentrations of compounds (in the volume of 10 μl) were added into each well 24 hours after seeding the cells. The cells were incubated with the compounds for another 24-48 hours.
After incubating the 9-13 replicon cells with the compounds for 24-48 hours, media were aspirated off and RNA samples were prepared from each well.
TaqMan® (Roche Molecular Systems) one step RT-PCR was performed using the RNA samples according to the manufacturer's manual. Briefly, properly diluted RNA sample, upstream primer, downstream primer, FAM-labeled probe oligo were mixed and water was added to make up the volume to 25 μl. Equal volume of 2× TaqMan Master Mix were added and the reaction was performed in an ABI Prism 7700 Sequence Detector (Applied Biosystems).

Row | SMILES | Activity (concentration of inhibitory activity)
19 | Cc1cc2cc(NC(=O)C3CCCC3)ccc2n1C(=O)c1c(Cl)cccc1Cl [Compound 16a-1, 5-Cyclopentanecarbonylamino-1-(2′,6′-dichlorobenzoyl)-2-methylindole] | a (“a” indicates inhibitory activity at a concentration of less than 10 micromolar)
